Earlier results, collected in patent US20110268669A1, “COMPOSITION AND METHOD FOR TREATING EUSTACHIAN TUBE DYSFUNCTION” (priority 2010, published 2011).

Conditions: taken as a chewing gum

Structure (SMILES): OC[C@@H](O)[C@H](O)[C@@H](O)CO [Xylitol]
- prevention of otitis media: shown to prevent otitis media
